Read-outs that look alike come from different tables or passages of the source.
Key:
rat primary OPC cultures = experiment: Differentiation of rat primary OPC into MBP+ OLs; format: cell-based; settings: 96 h, 4 days of differentiation, read-out: MBP+ differentiation (MBP+/SOX10+ OLs plus compounds / plus basal medium)
Protocol: Secondary validation on primary rat OPC differentiation. Re-validation of the best performing compounds promoting OPC differentiation (fold change >1.5) was performed on primary rat OPC cultures in 96 well-plate run in triplicates by triple immunolabeling for CNPase, MBP and SOX10 as a readout. Compounds at […] were added for 4 days of differentiation and then cell cultures were imaged with ArrayScanXTI platform, number of MBP+OLs were quantified by semi-automated software. Basal medium served as a negative control, 9 cis-RA ([…]) was a positive control.
Re-validation of the 49 compounds selected from the short list (160 compounds) using rat primary OPC cultures (compounds tested in triplicates in 3 independent experiments. The secondary validation screen of these compounds performed on rat primary OPC cultures selected 17 best lead compounds with a pro-differentiation activity (MBP+/SOX10+OLs plus compounds/MBP+SOX10+ plus basal medium fold increase) induced a strong differentiation into MBP+OLs (fold increase >1.6). Results are shown in FIG. 7.

[1] = system: murine cortical neurons (14 DIV); experiment: NMDA-mediated neuroprotective assay (CCK8 viability); format: cell-based, mouse; settings: 1 μM, 3 h pre-treatment, NMDA 8 μM 24 h, p<0.05
Protocol: To assess neuroprotective activity of 160 selected non-toxic compounds on primary murine cortical neurons, obtained as described in the previous paragraph, ([…]), cultures were pre-treated with 1 μM compounds for either 3 or 24 hours, followed by 24 hours chronic stimulation with NMDA (8 μM) to induce neuronal damage. Each test plate included: a negative control (untreated), vehicle-treated control (0.02% vol/vol DMSO), a positive neurotoxic control—staurosporine 0.1 μM, a stressor—NMDA 8 μM, a positive neuroprotective control—NAC 300 μM, and a combination of stressor +neuroprotective molecule (NMDA+NAC). Cell viability was measured with Cell Counting Kit-8 assay compared to NMDA-treated control.
The potential neuroprotective activity of 160 selected non-toxic compounds was evaluated on murine cortical neurons (14 DIV) with either 3 h (FIG. 13) or 24 h compounds pre-treatment (FIG. 14). In assay with 3 h pre-treatment, 17 compounds were identified as potential NMDA-neuroprotective hits (marked with black asterisk in FIG. 13, stat. significant at p<0.05, Kruskal-Wallis test with post-hoc two-stage linear step-up procedure of Benjamini, Krieger and Yekutieli multiple comparison correction).

[2] = system: rat oligodendrocyte progenitor CG4 line; experiment: Differentiation assay on rat oligodendrocyte progenitor CG4 line (HCS, mCherry+); format: cell-based; settings: secondary screen of 49 selected compounds, 1 μM, 5 days
Summary of the method: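 Double-reporter CG4 cells (mCherry in mature oligodendrocytes, EGFP in all lineage stages) proliferated 24 h, then given compounds at 1 μM for 5 days of differentiation, ⅔ medium changed at day 3. 9cis-RA as positive control, basal medium and 0.1% DMSO as negative; triplicates imaged by HCS, 35 fields/well.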

[3] = system: iPSC-derived neurons (DIV45)
Protocol: This protocol was modified from Yuchen Qi et al.^32 First, neural progenitors (NPCs) were generated from hiPSCs by dual-SMAD inhibition. Shortly, at day 0 iPSC colonies (confluent at 70-80%) were washed with PBS Dulbecco's w/o Calcium w/o Magnesium (Euroclone) and hiPSCs' maintenance medium (mTeSR™, StemCell Technologies) was replaced with neural induction medium composed by DMEM/F12 plus N2 medium (1×), B27 without RA supplement (0.5×) (Life Technology), added with SB431542 (10 μM) and LDN (500 nM). This medium was kept until day 4 (“induction”). At day 4, cells were splitted (1:3) with the same induction medium using Accutase®/Accumax™ (StemCell Technologies) dissociated solution. Entire medium was replaced daily up to days 14-16 until rosette formation was observed (“patterning”). At days 14-16, cells were detached by Accutase®/Accumax™ and re-plated on polyornitine/laminin/fibronectin coated MW96 or MW24 plates for terminal differentiation in Neurobasal medium supplemented with B27 (0.5×), BDNF (20 ng/ml), dbcAMP (500 μM), ascorbic acid (200 μM), PD0325901 (1 μM), SU5402 (5 μM), CHIR (3 μM), human recombinant insulin (5 μg/ml), supplemented with RI (Rock inhibitor) (1:3000) to reduce dissociation induced apoptosis. The half of differentiation medium was changed every 3-4 days, supplemented with 1 μg/ml laminin and DAPT (1-2 μM) until terminal maturation of neuronal population (MAP2+ cells). Cultures were characterized by immunocytochemistry and qRT-PCR and neuroprotective experiments were performed on days 30-40 of differentiation.
Evaluation of cytotoxicity of 160 selected compounds on iPSC-derived neurons (DIV45).

[4] = system: mouse cortical and striatal neurons; experiment: Morphological integrity evaluation, NMDA 20 μM; format: cell-based; settings: 1 μM, 24 h pre-treatment, NMDA 20 μM 24 h
Protocol: Morphological integrity evaluation. Mouse cortical and striatal neurons (14 DIV) cultured in MW96 plates were exposed to 1 uM to 60 uM concentrations of NMDA and relationship between the NMDA dose and fiber length was evaluated. […] Each of the compound was tested in quadruplicate. The fiber length was evaluated by MAP2 staining (please see the method described earlier).
42 compounds were screened to evaluate the morphological integrity of cortical and striatal neurons upon chronic (24 h) NMDA exposure at concentration of 20 μM with compounds pre-treatment (24 h) in preventive regimen (FIG. 17).

[5] = system: iPSC-derived glutamatergic neurons; experiment: ROS (tBuOOH)-mediated neuroprotective assay on hNeu; format: cell-based, human; settings: control line CTR4, 1 μM, p<0.05
Protocol: Neuroprotective experiments were performed using iPSC-derived glutamatergic neurons from 3 healthy controls cultured for 30-40 DIV. Cells were pre-treated for 24 h with […] of compounds, vehicle (DMSO) or 5 nM Mito-Q (mitoquinone) served as a positive control. On the next day cells were incubated for 2 h with 100 µM of tert-butyl peroxide (tBuOOH, Sigma), then the medium was replaced and the viability readout by CCK8 viability assay kit (Dojindo) was performed on the following day. The cell viability was expressed as normalized Z score and compared to tBuOOH-treated cells with nonparametric Kruskal-Wallis test with Dunn's multiple comparisons correction.
32 “Front runners” and 7 compounds from short list were tested on iPSC-derived neurons from three control lines in ROS-mediated assay to evaluate a neuroprotective potential of selected compounds. Three independent experiments were performed for CTR4 and CTR8, FIG. 20 (A, C), while two independent experiments were performed for CTR7, FIG. 20 (B).

[6] = system: human iPS-derived neuroprecursors; experiment: Differentiation of human iPS-derived neuroprecursors into MBP+ oligodendrocytes; format: cell-based; settings: 1 μM in minimal medium, p<0.05
From the text: NPC bearing a doxycycline inducible polycistronic construct containing SOX10, OLIG2 and NKX6.2^29 in a human safe harbor (passages 10 to 25) were singularized on day −3 by treatment with Accutase and plated on Matrigel-coated 12-well plates at a density of 100.000 cells per well in N2B27-medium containing equal parts of neurobasal (Invitrogen) and DMEM-F12 medium (Invitrogen) with 1:100 B27 supplement lacking vitamin A (Invitrogen), 1:200 N2 supplement (Invitrogen), 1% penicillin/streptomycin/glutamine (PSG), 3 μM CHIR99021 (Axon Medchem), 150 μM ascorbic acid and 0.5 μM SAG. The next day medium was changed to N2B27-medium containing 1 μg/ml doxycycline. On DO medium was changed to glial-induction medium (GIM) consisting of DMEM-F12 with 1:100 B27 supplement lacking vitamin A, 1:200 N2 supplement, 1% PSG, 1 μM SAG, 10 ng/mL NT3 (Peprotech), 10 ng/mL IGF-I (Peprotech), 200 μM AA (Sigma), 1:1000 Trace Elements B (Corning). For full medium conditions 10 ng/ml T3 was added. On Day 2 medium was changed to glial-differentiation medium (GDM) comprising DMEM-F12 with 1:100 B27 supplement lacking vitamin A, 1:200 N2 supplement, 1% PSG, 100 μM dbCAMP (Sigma), 100 μM AA, 1:1000. For full medium conditions 60 ng/mL T3, Trace Elements B 10 ng/mL, IGF-I, 10 ng/mL and NT3 were added to the culture. GDM was changed every other day. On day 7 cells were detached by treatment with Accutase and re-plated on laminin coated 48-well plates at densities of 10.000-12.000 cells per well. After 24 h cells were treated in minimal medium with either vehicle alone [0.01% (vol/vol) DMSO] as a negative control, 60 ng/mL T3 as a positive control, or with a drug candidate dissolved in DMSO. Medium was changed every other day. On D16 doxycycline was removed from the medium. Cells were fixed on D21 and analyzed via immunocytochemistry.
Immunocytochemistry. Cells were initially fixed with 4% PFA treatment for 20 min, RT. Following three washes with PBS cells were incubated with blocking solution containing 5% normal goat serum (NGS) and 5% FCS (fetal calf serum) in PBS for 30 min at RT to prevent unspecific binding of the antibodies. To detect intracellular antigens cells were permeabilized by adding 0.5% Triton X-100 to the Blocking-solution. Cells treated with Triton X-100 were washed three times with PBS each time for 5 min at RT. Primary antibodies (rat anti-MBP,1:50, Abcam, AB7349) were applied overnight, 4° C., in blocking solution. The next day cells were washed 3 times with PBS at RT, and afterwards incubated with secondary antibodies (AF488 Alexa Fluor anti-rat (goat), 1:500, Jackson/Dianova, #112-545-167) diluted in PBS for 1 h at RT. Secondary antibodies were subsequently removed by washing 3 times with PBS. Afterwards PBS containing a Dapi staining for nuclei was added for 5 minutes and afterwards washed off with PBS. Cells were kept at 4° C. until imaging.
Imaging and evaluation. From each condition (triplicates) 20-30 pictures were taken randomly chosen by the Dapi-signal. Cell numbers were determined by using an ImageJ Macro to count the nuclei whereas MBP positive cells were subsequently counted manually in black and white images.
The effect on oligodendroglial differentiation of 32 compounds (“Front runners”) was tested. Induced pluripotent stem cells in which the transcription factors SOX10, OLIG2, NKX6.2 were inserted in a doxycycline inducible manner into a human safe harbor were differentiated into neural stem cells. Differentiation into oligodendrocytes was induced by addition of doxycycline. Cells were cultured either in a minimal medium (MM) (negative control) or in MM with the different compounds at a concentration of 1 μM. Addition of T3 to the minimal medium served as a positive control.

mouse cortical neurons = experiment: Morphological integrity evaluation, NMDA 8 μM (MAP2 neurite length and branching); format: cell-based; settings: 3 h pre-treatment, NMDA 8 μM 24 h; Z>0.5 criteria
Protocol: Apart of viability/metabolic readout in NMDA-mediated neurotoxicity assay, a neuronal structural integrity was evaluated by MAP2 staining. Mouse cortical neurons (14 DIV) cultured in MW96 plates were fixed with 4% paraformaldehyde (PFA). Fixed cells were incubated with blocking solution (PBS 1×, donkey serum 5%, Triton 0.1%) for 1-hour, primary antibody (rabbit α-MAP2, 1:250, Millipore) was applied in the same solution overnight at +4° C. […] Nuclei were stained with 4′-6-diamidino-2-phenylindole (DAPI, Roche). Microscopy was performed using ArrayScan™XTI (ThermoFisher) imaging platform. 15 images per well were acquired and analyzed by CellProfiler. Total neurite length and the total number of non-trunk branches were analyzed. Total neurite length and the total number of branching were evaluated from 15 images/well, each compound or control was tested in triplicates. The total neurite length and total number of branches were converted to a standardized Z-score using formula: Xij=((Xij−μ)/σ), where xij is the raw measurement of the compound located in well (i, j), and μ and σ are, respectively, the mean and the standard deviation of all measurements of the plate.^31
The morphological integrity of mouse cortical neurons upon chronic 24 h NMDA (8 μM) exposure with compounds pre-treatment (3 h) in preventive regimen was evaluated. Control (basal), DMSO, N-acetylcysteine (NAC) served as positive controls, while staurosporine and NMDA were negative controls.

| Compound | neuroprotection of viability/metabolic activity against NMDA [1] | CG4 differentiation compared with 9cis-RA positive control [2] | morphological integrity (neurite length) of cortical and striatal neurons [4] | protection from tBuOOH insult [5] | further results |
| --- | --- | --- | --- | --- | --- |
| Cc1c(Cc2ccc3ccccc3n2)c2cc(F)ccc2n1CC(=O)O [0C000459, TIMAPIPRANT] | hit compounds | promoting differentiation significantly higher than 9cis-RA positive control | – | – | fold induction at 1 µM (rat primary OPC cultures): > 1.6; viability compared to DMSO ([3]; human): 65-80% |
| COc1ccc2c(OCc3nnc4ccc(-c5ccccc5)nn34)ccnc2c1 [AMG-208] | – | – | selected for confirmation | – | – |
| Oc1ccc([C@H]2COc3cc(O)ccc3C2)cc1 [Equol] | – | promoting differentiation significantly higher than 9cis-RA positive control | – | protected from tBuOOH insult | – |
| COc1ccc(Cl)cc1[C@]1(F)C(=O)Nc2cc(C(F)(F)F)ccc21 [Flindokalner] | – | – | selected for confirmation | – | – |
| CNC(=O)c1ccc(Oc2ccc3c(c2)CCN(C2CCC2)CC3)nc1 [GSK189254] | hit compounds | promoting differentiation significantly higher than 9cis-RA positive control | – | protected from tBuOOH insult | differentiation into MBP+ oligodendrocytes [6]: promote significantly (p<0.05) the differentiation into MBP+ oligodendrocytes; differentiation into MBP+ oligodendrocytes ([6]; listed as Gsk189254): promote significantly the differentiation into MBP+ oligodendrocytes |
| CC1(C)CC(C)(C)CC(C)(N)C1 [Neramexane] | hit compounds | promoting differentiation significantly higher than 9cis-RA positive control | – | – | preservation of neurite length and network integrity (branching) (mouse cortical neurons): preserved both neurite length and the network integrity (branching); viability compared to DMSO [3]: 65-80% |
